# Source: PubChem BioAssay AID1259407 (Chemical Carcinogenesis Research Information System (CCRIS), 2018)
# Calls of active or inactive are those of the source. No rule for the calls is given here.
# System: CCRIS mutagenicity, Ames/micronucleus/aberration tests
# Assay: CCRIS mutagenicity studies
# [1] = Test System: AMES SALMONELLA TYPHIMURIUM, Strain/Indicator: TA97, Metabolic Activation: NONE, Method: STANDARD PLATE
# [2] = Test System: AMES SALMONELLA TYPHIMURIUM, Strain/Indicator: TA98, Metabolic Activation: NONE, Method: STANDARD PLATE
# [3] = Test System: AMES SALMONELLA TYPHIMURIUM, Strain/Indicator: TA100, Metabolic Activation: NONE, Method: STANDARD PLATE
# [4] = Test System: AMES SALMONELLA TYPHIMURIUM, Strain/Indicator: TA1535, Metabolic Activation: NONE, Method: STANDARD PLATE
# [5] = Test System: AMES SALMONELLA TYPHIMURIUM, Strain/Indicator: TA100, Metabolic Activation: RAT, LIVER, S-9, AROCLOR 1254, Method: STANDARD PLATE
# [6] = Test System: AMES SALMONELLA TYPHIMURIUM, Strain/Indicator: TA98, Metabolic Activation: RAT, LIVER, S-9, AROCLOR 1254, Method: STANDARD PLATE
structure (smiles),measurement,setting,value
CCN(C)C(=O)Oc1ccc2c(c1)C1(C)CCN(C)C1N2C (stereo not given),mutagenic call,[1],inactive; negative
same,mutagenic call,"Test System: AMES SALMONELLA TYPHIMURIUM, Strain/Indicator: TA97, Metabolic Activation: S-9, Method: STANDARD PLATE",inactive; negative
same,mutagenic call,[2],inactive; negative
same,mutagenic call,"Test System: AMES SALMONELLA TYPHIMURIUM, Strain/Indicator: TA98, Metabolic Activation: S-9, Method: STANDARD PLATE",inactive; negative
same,mutagenic call,[3],inactive; negative
same,mutagenic call,"Test System: AMES SALMONELLA TYPHIMURIUM, Strain/Indicator: TA100, Metabolic Activation: S-9, Method: STANDARD PLATE",inactive; negative
same,mutagenic call,"Test System: AMES SALMONELLA TYPHIMURIUM, Strain/Indicator: TA104, Metabolic Activation: NONE, Method: STANDARD PLATE",inactive; negative
same,mutagenic call,"Test System: AMES SALMONELLA TYPHIMURIUM, Strain/Indicator: TA104, Metabolic Activation: S-9, Method: STANDARD PLATE",inactive; negative
same,mutagenic call,[4],inactive; negative
same,mutagenic call,"Test System: AMES SALMONELLA TYPHIMURIUM, Strain/Indicator: TA1535, Metabolic Activation: S-9, Method: STANDARD PLATE",inactive; negative
same,mutagenic call,"Test System: AMES SALMONELLA TYPHIMURIUM, Strain/Indicator: TA1537, Metabolic Activation: NONE, Method: STANDARD PLATE",inactive; negative
same,mutagenic call,"Test System: AMES SALMONELLA TYPHIMURIUM, Strain/Indicator: TA1537, Metabolic Activation: S-9, Method: STANDARD PLATE",inactive; negative
same,mutagenic call,"Test System: AMES SALMONELLA TYPHIMURIUM, Strain/Indicator: TA1538, Metabolic Activation: NONE, Method: STANDARD PLATE",inactive; negative
same,mutagenic call,"Test System: AMES SALMONELLA TYPHIMURIUM, Strain/Indicator: TA1538, Metabolic Activation: S-9, Method: STANDARD PLATE",inactive; negative
Cc1ccc2nc3c(c4c(c5ccccc53)O4)c(C)c2c1,mutagenic call,[3],active; positive
same,mutagenic call,[5],inactive; negative
CCOC(=O)c1[nH]c2ccccc2c1N=Cc1ccc(C)cc1,mutagenic call,[1],inactive; negative
same,mutagenic call,"Test System: AMES SALMONELLA TYPHIMURIUM, Strain/Indicator: TA97, Metabolic Activation: RAT, LIVER, S-9, AROCLOR 1254, Method: STANDARD PLATE",inactive; negative
same,mutagenic call,[2],inactive; negative
same,mutagenic call,[6],inactive; negative
same,mutagenic call,[3],inactive; negative
same,mutagenic call,[5],inactive; negative
same,mutagenic call,"Test System: AMES SALMONELLA TYPHIMURIUM, Strain/Indicator: TA102, Metabolic Activation: NONE, Method: STANDARD PLATE",inactive; negative
same,mutagenic call,"Test System: AMES SALMONELLA TYPHIMURIUM, Strain/Indicator: TA102, Metabolic Activation: RAT, LIVER, S-9, AROCLOR 1254, Method: STANDARD PLATE",inactive; negative
N#CC(Cl)(Cl)Cl,mutagenic call,"Test System: AMES SALMONELLA TYPHIMURIUM, Strain/Indicator: TA98, Metabolic Activation: NONE, Method: FLUCTUATION (MICROTITER)",inactive; negative
same,mutagenic call,[2],inactive; negative
same,mutagenic call,"Test System: AMES SALMONELLA TYPHIMURIUM, Strain/Indicator: TA98, Metabolic Activation: RAT LIVER S-9, AROCLOR 1254, Method: FLUCTUATION (MICROTITER)",inactive; negative
same,mutagenic call,[6],inactive; negative
same,mutagenic call,"Test System: AMES SALMONELLA TYPHIMURIUM, Strain/Indicator: TA100, Metabolic Activation: NONE, Method: FLUCTUATION TEST",active; positive
same,mutagenic call,[3],inactive; negative
same,mutagenic call,"Test System: AMES SALMONELLA TYPHIMURIUM, Strain/Indicator: TA100, Metabolic Activation: RAT, LIVER, S-9, AROCLOR 1254, Method: FLUCTUATION TEST",inactive; negative
same,mutagenic call,[5],inactive; negative
same,mutagenic call,[4],inactive; negative
same,mutagenic call,"Test System: AMES SALMONELLA TYPHIMURIUM, Strain/Indicator: TA1535, Metabolic Activation: RAT, LIVER, S-9, AROCLOR 1254, Method: STANDARD PLATE",inactive; negative
same,mutagenic call,"Test System: AMES SALMONELLA TYPHIMURIUM, Strain/Indicator: TA1537, Metabolic Activation: NONE, Method: FLUCTUATION (MICROTITER)",inactive; negative
same,mutagenic call,"Test System: AMES SALMONELLA TYPHIMURIUM, Strain/Indicator: TA1537, Metabolic Activation: RAT LIVER S-9, AROCLOR 1254, Method: FLUCTUATION (MICROTITER)",inactive; negative
same,mutagenic call,"Test System: AMES SALMONELLA TYPHIMURIUM, Strain/Indicator: TA7001, Metabolic Activation: NONE, Method: FLUCTUATION (MICROTITER)",inactive; negative
same,mutagenic call,"Test System: AMES SALMONELLA TYPHIMURIUM, Strain/Indicator: TA7001, Metabolic Activation: RAT LIVER S-9, AROCLOR 1254, Method: FLUCTUATION (MICROTITER)",inactive; negative
same,mutagenic call,"Test System: AMES SALMONELLA TYPHIMURIUM, Strain/Indicator: TA7002, Metabolic Activation: NONE, Method: FLUCTUATION (MICROTITER)",inactive; negative
same,mutagenic call,"Test System: AMES SALMONELLA TYPHIMURIUM, Strain/Indicator: TA7002, Metabolic Activation: RAT LIVER S-9, AROCLOR 1254, Method: FLUCTUATION (MICROTITER)",inactive; negative
same,mutagenic call,"Test System: AMES SALMONELLA TYPHIMURIUM, Strain/Indicator: TA7003, Metabolic Activation: NONE, Method: FLUCTUATION (MICROTITER)",inactive; negative
same,mutagenic call,"Test System: AMES SALMONELLA TYPHIMURIUM, Strain/Indicator: TA7003, Metabolic Activation: RAT LIVER S-9, AROCLOR 1254, Method: FLUCTUATION (MICROTITER)",inactive; negative
same,mutagenic call,"Test System: AMES SALMONELLA TYPHIMURIUM, Strain/Indicator: TA7004, Metabolic Activation: NONE, Method: FLUCTUATION (MICROTITER)",inactive; negative
same,mutagenic call,"Test System: AMES SALMONELLA TYPHIMURIUM, Strain/Indicator: TA7004, Metabolic Activation: RAT LIVER S-9, AROCLOR 1254, Method: FLUCTUATION (MICROTITER)",inactive; negative
same,mutagenic call,"Test System: AMES SALMONELLA TYPHIMURIUM, Strain/Indicator: TA7005, Metabolic Activation: NONE, Method: FLUCTUATION (MICROTITER)",inactive; negative
same,mutagenic call,"Test System: AMES SALMONELLA TYPHIMURIUM, Strain/Indicator: TA7005, Metabolic Activation: RAT LIVER S-9, AROCLOR 1254, Method: FLUCTUATION (MICROTITER)",inactive; negative
same,mutagenic call,"Test System: AMES SALMONELLA TYPHIMURIUM, Strain/Indicator: TA7006, Metabolic Activation: NONE, Method: FLUCTUATION (MICROTITER)",inactive; negative
same,mutagenic call,"Test System: AMES SALMONELLA TYPHIMURIUM, Strain/Indicator: TA7006, Metabolic Activation: RAT LIVER S-9, AROCLOR 1254, Method: FLUCTUATION (MICROTITER)",inactive; negative
COCC(=O)N(c1c(C)cccc1C)C(C)C(=O)OC (stereo not given),mutagenic call,"End Point: In vitro micronucleus, Test System: Human lymphocytes, Metabolic Activation: None",inactive; negative (positive only at 50 ug/ml dose)
same,mutagenic call,"End Point: In vivo micronucleus, Test System: Bone marrow polychromatic erythrocytes, Species: Rat, Strain/Sex: Wistar/Male, Route: Oral",active; positive (at high dose)
